From ChEMBL document CHEMBL4513161, “CO-ADD screening of MMV (CH) - Pandemic Response Box” (2021)
Converted amounts (≈) assume the structure as drawn.

Tests used:
Pseudomonas aeruginosa [1] = assay: microbe, parasite or virus in culture; conditions: ATCC 27853, 18 h, ASSAY_TEST Inhibition of Bacterial Growth, detection method Absorption (OD600), MEDIA CAMHB, plate type 384well, NBS, CORNING #3640
Candida albicans = assay: microbe, parasite or virus in culture; conditions: ATCC 90028, ASSAY_TEST Inhibition of Fungal Growth, detection method Absorption (OD530), plate type 384well, NBS, CORNING #3640
Klebsiella pneumoniae = assay: microbe, parasite or virus in culture; conditions: ATCC 700603, 18 h, ASSAY_TEST Inhibition of Bacterial Growth, detection method Absorption (OD600), MEDIA CAMHB, plate type 384well, NBS, CORNING #3640
HEK293 = assay: cells; type: functional, Homo sapiens, ATCC CRL1573; conditions: ASSAY_TEST Inhibition of Cell Viability, detection method Resazurin, Fluorescence (ex560/em590), MEDIA DMEM with 10% FBS, plate type 384well, TC, CORNING #3712, time 18 hr, read-out: CC50
Staphylococcus aureus = assay: microbe, parasite or virus in culture; conditions: ATCC 43300, 18 h, ASSAY_TEST Inhibition of Bacterial Growth, detection method Absorption (OD600), MEDIA CAMHB, plate type 384well, NBS, CORNING #3640
Acinetobacter baumannii = assay: microbe, parasite or virus in culture; conditions: ATCC 19606, 18 h, ASSAY_TEST Inhibition of Bacterial Growth, detection method Absorption (OD600), MEDIA CAMHB, plate type 384well, NBS, CORNING #3640
Escherichia coli = assay: microbe, parasite or virus in culture; conditions: ATCC 25922, 18 h, ASSAY_TEST Inhibition of Bacterial Growth, detection method Absorption (OD600), MEDIA CAMHB, plate type 384well, NBS, CORNING #3640
Pseudomonas aeruginosa [2] = assay: Antibacterial activity against Pseudomonas aeruginosa PAO397 [PAO1 d(mexAB-oprM) d(mexCD-oprJ) d(mexEF-oprN) d(mexJKL) d(mexXY) d(opmH)] (CO-ADD:GN_211); MIC in CAMBH media using NBS plates, by OD(600); type: functional; conditions: ASSAY_TEST Inhibition of Bacterial Growth, detection method Absorption (OD600), MEDIA CAMHB, plate type 384well, CORNING #3640, time 18 hr
[3] = Homo sapiens, ATCC CRL1573, HEK293

| SMILES | MIC (Cryptococcus neoformans) [µM] | MIC (Pseudomonas aeruginosa [1]) [µM] | MIC (Candida albicans) [µM] | MIC (Klebsiella pneumoniae) [µM] | MIC (Staphylococcus aureus) [µM] | MIC (Acinetobacter baumannii) [µM] | MIC (Escherichia coli) [µM] | MIC (Pseudomonas aeruginosa [2]) [µM] | CC50 (HEK293; [3]) [µM] | CC50 (HEK293) [µM] |
| --- | --- | --- | --- | --- | --- | --- | --- | --- | --- | --- |
| CC(C)CCN1C(=O)C(C2=NS(=O)(=O)c3cc(NS(C)(=O)=O)ccc3N2)=C(O)[C@@H]2[C@H]3CC[C@H](C3)[C@@H]21 | > 20 | > 20 | > 20 | > 20 | > 20 | > 20 | > 20 | > 20 | > 20 |  |
| N=c1n(CCN2CCCCC2)c2ccccc2n1CC(O)COc1ccc(Cl)cc1Cl (centres undefined) | > 20 |  | > 20 | > 20 | > 20 | > 20 | > 20 |  | 6.89 |  |
| CCN(CC)CCn1c(=N)n(CC(O)COc2ccc(Cl)cc2Cl)c2ccccc21 (centres undefined) | > 20 | 20 (≈ 9.03 µg/mL) | > 20 | > 20 | > 20 | > 20 | > 20 |  | 4.49 |  |
| COc1ccc(C(C)(C)C)cc1NC(=O)C(=O)c1ccc(OCCN2CCOCC2)c2ccccc12 | > 20 | > 20 | > 20 | > 20 | > 20 | > 20 | > 20 | > 20 | > 20 |  |
| O=C1C=C(c2ccccc2)S(=O)(=O)c2ccccc21 | 5 (≈ 1.35 µg/mL) | > 20 | 5 (≈ 1.35 µg/mL) | > 20 | > 20 | > 20 | > 20 | > 20 | 4.03 |  |
| CN(O)C(=O)c1cc2c(CN3CCC[C@H]3C(N)=O)cn(Cc3ccc(F)cc3)c2cn1 | > 20 | > 20 | > 20 | > 20 | > 20 | > 20 | > 20 | > 20 | > 20 |  |
| CN1c2ccc(Cl)cc2N(c2ccccc2)C(=O)c2cn(Cc3ccc(CN4CCOCC4)cc3)nc21 | > 20 | > 20 | > 20 | > 20 | > 20 | > 20 | > 20 | > 20 | > 20 |  |
| CN1C(=O)C(c2ccccc2)C(=O)N(c2ccccc2)c2cc(C(F)(F)F)ccc21 (centres undefined) | > 20 | > 20 | > 20 | > 20 | > 20 | > 20 | > 20 | > 20 | > 20 |  |
| O=C(O)COc1cccc2c1CC[C@](O)(COC(=O)N(c1ccccc1)c1ccccc1)C2 | > 20 | > 20 | > 20 | > 20 | > 20 | > 20 | > 20 | > 20 | > 20 |  |
| CC(C)(C)NC(=O)[C@@H]1CN(Cc2cnc3occc3c2)CCN1C[C@@H](O)C[C@@H](Cc1ccccc1)C(=O)N[C@H]1c2ccccc2C[C@H]1O | > 20 | > 20 | > 20 | > 20 | > 20 | > 20 | > 20 | > 20 | > 20 |  |
| O=C(O)C[C@H]1CC[C@H](c2ccc(-c3ccc(Nc4ccc(C(F)(F)F)nc4)cn3)cc2)CC1 | > 20 | > 20 | > 20 | > 20 | > 20 | > 20 | > 20 | > 20 | > 20 |  |
| C[Si]1(C)CCN(Cc2cc(-c3ccc(Cl)cc3)n(-c3ccc(Cl)cc3)n2)CC1 | > 20 | > 20 | > 20 | > 20 | > 20 | > 20 | > 20 | > 20 | > 20 |  |
| Nc1nc(F)nc2c1ncn2[C@H]1O[C@@H](CO)[C@H](O)[C@@H]1O | > 20 | > 20 | > 20 | > 20 | > 20 | > 20 | > 20 | > 20 | 0.535 |  |
| CC1(C)C[C@H]1C(=O)N/C(=C\CCCCSC[C@@H](N)C(=O)O)C(=O)O | > 20 | > 20 | > 20 | > 20 | > 20 | > 20 | > 20 | > 20 | > 20 |  |
| Clc1ccc(COC(Cn2ccnc2)c2ccc(Cl)cc2Cl)c(Cl)c1 (centres undefined) | 0.625 (≈ 0.26 µg/mL) |  |  |  |  |  |  | > 20 |  | > 20 |
| NC(=O)C(c1ccccc1)(c1ccccc1)[C@H]1CCCN(CCc2ccc3c(c2)CCO3)C1 | > 20 | > 20 | > 20 | > 20 | > 20 | > 20 | > 20 | 20 (≈ 8.81 µg/mL) | > 20 |  |
| C=CCN(C(=O)OCc1ccc([N+](=O)[O-])cc1)C1CCN(CC[C@](C)(CN(C)S(=O)(=O)c2ccccc2)c2ccccc2)CC1 | > 20 | > 20 | > 20 | > 20 | > 20 | > 20 | > 20 | > 20 | > 20 |  |
| CC1(C)[C@H](C(=O)O)N2C(=O)C[C@H]2S1(=O)=O [SULBACTAM] | > 20 | 2.5 (≈ 0.583 µg/mL) | > 20 |  | > 20 | > 20 | > 20 | > 20 | > 20 |  |

Continued, in another order:

| MIC (Cryptococcus neoformans) [µM] | MIC (Pseudomonas aeruginosa [1]) [µM] | MIC (Candida albicans) [µM] | MIC (Klebsiella pneumoniae) [µM] | MIC (Staphylococcus aureus) [µM] | MIC (Acinetobacter baumannii) [µM] | MIC (Escherichia coli) [µM] | MIC (Pseudomonas aeruginosa [2]) [µM] | SMILES | CC50 (HEK293; [3]) [µM] | CC50 (HEK293) [µM] |
| --- | --- | --- | --- | --- | --- | --- | --- | --- | --- | --- |
| > 20 | > 20 | > 20 | > 20 | > 20 | > 20 | > 20 | > 20 | Cc1cc(CCOc2c(C)cc(-c3nnn(C)n3)cc2C)on1 | > 20 |  |
| > 20 | > 20 | > 20 | > 20 | > 20 | > 20 | > 20 | > 20 | C[C@@H](NC(=O)c1cccc(-c2cnc(-c3cc4ccccc4cn3)[nH]2)c1)c1ccc(F)cc1 | 10.8 |  |
| > 20 | > 20 | > 20 | > 20 | > 20 | > 20 | > 20 | > 20 | N[C@H]1CCC[C@H]1C(=O)O | > 20 |  |
| > 20 | > 20 | > 20 | > 20 | > 20 | > 20 | > 20 | > 20 | Cn1c2ccccc2c(=O)c2c(O)cccc21 | > 20 |  |
| > 20 | > 20 | > 20 | > 20 | 2.5 (≈ 0.886 µg/mL) | > 20 | > 20 | 5 (≈ 1.77 µg/mL) | COc1cc(Cc2cnc(N)nc2N)c2c(c1OC)OC(C1CC1)C=C2 (centres undefined) | > 20 |  |
| > 20 | > 20 | > 20 | > 20 | > 20 | > 20 | > 20 | > 20 | CN(C)CCCNC(=O)c1ccc(-c2cc(O)c3ncccc3c2)cc1 | 16.6 |  |
| > 20 | > 20 | > 20 | > 20 | > 20 | > 20 | > 20 | > 20 | O=C(CSc1nnc(Br)n1-c1ccc(C2CC2)c2ccccc12)Nc1ccc(C(=O)O)cc1Cl | > 20 |  |
| > 20 |  |  |  |  |  |  |  | CC(Oc1ccc(Cl)cc1Cl)C(=O)NCc1ccc2c(c1)OCO2 (centres undefined) | > 20 |  |
| > 20 | > 20 | > 20 | > 20 | > 20 | > 20 | > 20 | > 20 | FC(F)(F)c1cc(C(F)(F)F)c2ccc3nc(-c4nnco4)cn3c2n1 | > 20 |  |
| > 20 | > 20 | > 20 | > 20 | > 20 | > 20 | > 20 | > 20 | CN(C)CCCOc1ccc(-c2ccc3ncc4c(c3c2)n(C2CCOCC2)c(=O)n4C)cn1 | > 20 |  |
| > 20 | > 20 | > 20 | > 20 | > 20 | > 20 | > 20 | > 20 | Cc1nc(N(C)C(=O)Cc2ccc(-c3ccccn3)cc2)sc1S(N)(=O)=O | > 20 |  |
